Molecules are shown by their SMILES. Read-outs that look alike come from different tables or passages of the source. *1 amine or outer side, *2 acyl side, *3 side chain or, on linkers, in order; H or OH if unused. Where a SMILES comes first, the peptide text is derived from it. Bridges are numbered along the chain shown (N, C = ends). [ ]: non-standard residue; d: D form. The star is where a group is joined. Leu(3R-O(AcLeu(3R-OH))) = CC(=O)N[C@H](C(=O)O[C@H](C(C)C)[C@H](N)C(=O)O)[C@H](O)C(C)C; Leu(3R-OH,Nα-propionyl) = CCC(=O)N[C@H](C(=O)*)[C@H](O)C(C)C; X1 = CC(C)[C@@H](O[*:3])[C@H](N[*:1])C(=O)[*:2]; NMeT = CN[C@H](C(=O)O)[C@@H](C)O; dPhLac = O=C(O)[C@H](O)Cc1ccccc1; NMeA = CN[C@@H](C)C(=O)O; NMeDha = C=C(NC)C(=O)O

One assay deals with T1, human Gα11 (Homo sapiens, UniProt P29992).
T1 construct: expressed in transfected cells; membrane preparations
T1 sequence (P29992 1-359): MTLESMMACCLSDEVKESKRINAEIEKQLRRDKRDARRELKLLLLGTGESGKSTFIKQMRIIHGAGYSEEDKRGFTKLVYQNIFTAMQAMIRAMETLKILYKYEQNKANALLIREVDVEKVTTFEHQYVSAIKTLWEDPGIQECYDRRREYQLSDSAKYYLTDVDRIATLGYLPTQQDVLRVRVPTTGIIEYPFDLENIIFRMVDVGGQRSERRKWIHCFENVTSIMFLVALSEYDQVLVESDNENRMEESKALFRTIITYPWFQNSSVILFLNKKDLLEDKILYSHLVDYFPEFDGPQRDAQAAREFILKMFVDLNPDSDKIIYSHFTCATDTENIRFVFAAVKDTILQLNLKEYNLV
The assay is described as follows: Competition binding at membranes of HEK-CRISPR-Cas9-Gαq-KO cells expressing Gα11. As for the experimental part: cDNAs encoding for the α‐subunits of the human G11, G14, G15 and mouse Gq guanine nucleotide‐binding proteins in a pcDNA3.1(+) vector were obtained from E. Kostenis. CRISPR/Cas9‐Gαq‐knockout (KO) HEK293 cells were from M. Yamaguchi. The protein sequences of the human and mouse Gαq proteins differ only by one amino acid in position 171 (alanine in human and serine in mouse). […]. After 16 hr, 3 ml of DMEM containing 10% FBS, 1% of a penicillin/streptomycin solution (final concentrations: penicillin = 100 U·ml^−1, streptomycin = 0.1 mg·ml^−1), and sodium butyrate (5 mM) was added to the packaging cells. They were kept at 32°C and 5% CO2 for 48 hr, during which the viral vectors containing the receptor sequence were produced and released into the surrounding medium. These were harvested, filtered ([…] filter pore diameter), and added to HEK293 cells that had previously been modified via CRISPR/Cas9 genome editing to lack Gαq expression. Polybrene solution (6 μl, 4 mg·ml^−1 in H2O, filtered) was added. After 2.5 hr, the virus‐containing medium was discarded, and DMEM supplemented with 10% FBS and 1% of a penicillin/streptomycin solution (final concentrations: penicillin = 100 U·ml^−1, streptomycin = 0.1 mg·ml^−1) was given to the cells. These were incubated for 2 days, followed by selection of successfully transfected cells with geneticin resistance by adding G418 (200 μg·ml^−1) to the medium. The cells were cultured in these media at 37°C and 10% CO2 until membrane preparations were generated.
Recombinant HEK cells were cultured to 70% of confluence. The culture medium was discarded, and cells were washed once with approximately 5 ml of PBS. Dishes were stored at −20°C until further use. After defrosting, cells were detached with a rubber scraper after adding 5‐mM Tris–HCl, 2‐mM EDTA, pH 7.4. The collected cell suspension was homogenized using an Ultra‐Turrax® for 1 min at a speed level of 4. The cell suspension was transferred into tubes and centrifuged for 10 min at 1,000 g, 4°C. The pellet (P1) was discarded, and the supernatant was centrifuged for 45 min at 48,400 g, 4°C. The resulting supernatant was discarded, and the pellet (P2) was resuspended in 50‐mM Tris–HCl, pH 7.4, and centrifuged again for 45 min at 48,400 g, 4°C. This step was repeated once again, and the suspension was subsequently homogenized using an Ultra‐Turrax® for 1 min at a speed level of 4 (IKA Laborechnik), transferred into cryovials, and stored at −80°C (for up to several months). […]
The experiments were performed in 50‐mM Tris–HCl buffer, pH 7.4. […] Non‐specific binding was determined in the presence of 5‐μM FR. […] Luma Safe® scintillation cocktail (2.5 ml) was added, and after 6 hr of incubation, the samples were counted for 1 min each, using a liquid scintillation counter (counting efficiency 53%). […]

Assay [1] deals with Gq signalling via recombinantly expressed human P2Y1 receptor. The assay is described as follows: Calcium mobilization assay, ADP-induced (P2Y1 receptor) in 1321N1 astrocytoma cells. Format: cell-based. The conditions noted are these: Homo sapiens; versus ADP (EC80), P2Y1 receptor, 1321N1 astrocytoma cells; read-out: pIC50, inhibition of calcium mobilization (converted). How it is done:
The functional activity of YM, FR, and Ebselen as Gq protein inhibitors was determined by assessing their ability to antagonize ADP‐induced calcium mobilization in 1321N1 astrocytoma cells stably transfected with the human P2Y1 receptor, which is a Gq‐coupled receptor. In addition, the compounds' inhibitory effects on Carbachol‐induced calcium mobilization were studied in the same cell line, which endogenously express the Gq‐coupled muscarinic M3 ACh receptor. The assays were performed according to a previously described procedure (Rafehi et al., 2017) using a NOVOstar microplate reader (BMG Labtech, Offenburg, Germany).

For `C=C1C(=O)N[C@@H](C)C(=O)N(C)[C@@H](C)C(=O)N[C@@H]([C@H](OC(=O)[C@@H](NC(C)=O)[C@H](O)C(C)C)C(C)C)C(=O)N(C)[C@@H]([C@@H](C)OC)C(=O)O[C@H](C)[C@H](NC(C)=O)C(=O)O[C@H](Cc2ccccc2)C(=O)N1C` [YM, YM‐254890] (Ac-T[dPhLac][NMeDha]A[NMeA][Leu(3R-O(AcLeu(3R-OH)))][NMeT](Me); ester 1-C), the “Pseudo-Bmax ± SD” value on human Gα11 (YM versus [³H]PSB-16254 (5 nM), 37°C, G11) is on record as 6.23 ± 2.92 pmol/mg. Also, the IC50 was 8.71 nM on human Gα11 (YM versus [³H]PSB-16254 (5 nM), 37°C, G11, read-out: pIC50 ± SD (converted)) and 0.955 nM in assay [1].
Regarding `C=C1C(=O)N[C@@H](C)C(=O)N(C)[C@@H](C)C(=O)N[C@@H]([C@H](OC(=O)[C@@H](NC(=O)CC)[C@H](O)C(C)C)C(C)C)C(=O)N(C)[C@@H]([C@@H](C)OC)C(=O)O[C@H](C(C)C)[C@H](NC(C)=O)C(=O)O[C@H](Cc2ccccc2)C(=O)N1C` [FR, FR900359] (Ac-[X1][dPhLac][NMeDha]A[NMeA][X1](Leu(3R-OH,Nα-propionyl))[NMeT](Me); ester 1-C), the IC50 on human Gα11 was 10.5 nM; in assay [1], 0.692 nM. At human Gα11 (FR versus [³H]PSB-15900 (5 nM), 37°C, G11), the “Pseudo-Bmax ± SD” value was determined as 6.23 ± 1.39 pmol/mg.

(Values after publication PMC7070167, “Cell‐permeable high‐affinity tracers for Gq proteins provide structural insights, reveal distinct binding kinetics and identify small molecule inhibitors” (British Journal of Pharmacology, 2020).)
